From US6534482B1, “Expression vectors for stimulating an immune response and methods of using the same” (priority 1998, dated 2003)
Entries after “also recorded” stand apart in the source; their conditions may differ.

Experiments:
CTL response = system: CTL response; set-up: species or system HLA-A2.1/K^b-H-2^bxs transgenic mice; details: mouse; for Immunogenicity In Vivo (IFA): No. CTL-Positive Cultures: sc; for immunogenicity of the peptide administered in IFA (in words): in vivo
[1] = mouse, in vivo; cited from earlier work
[2] = system: mouse and human MHC class II haplotypes; details: wide range of mouse and human MHC class II haplotypes; cited from earlier work

Row | Molecule | Immunogenicity In Vivo (IFA): CTL Response (Geo. Mean ΔLU) (CTL response) | Immunogenicity In Vivo (IFA): No. CTL-Positive Cultures (CTL response) | immunogenicity of the peptide administered in IFA (in words) (CTL response) | immunogenicity in H-2^b mice (in words) [1] | MHC binding affinity (in words) [2]
1 | CC(C)C[C@H](NC(=O)[C@@H](NC(=O)[C@@H](N)CO)[C@@H](C)O)C(=O)N1CCC[C@H]1C(=O)N[C@@H](CCC(=O)O)C(=O)N[C@H](C(=O)N[C@H](C(=O)N[C@H](C(=O)N[C@H](C(=O)N[C@@H](CCCNC(=N)N)C(=O)N[C@@H](CCCNC(=N)N)C(=O)O)C(C)C)C(C)C)[C@@H](C)O)[C@@H](C)O [HBV Core 141] | 12.1 (2.6) ΔLU | 6/6 |  |  | 
2 | CC(C)C[C@H](NC(=O)[C@H](CO)NC(=O)[C@H](CC(C)C)NC(=O)[C@@H](N)Cc1c[nH]c2ccccc12)C(=O)N[C@@H](CC(C)C)C(=O)N[C@H](C(=O)N1CCC[C@H]1C(=O)N[C@@H](Cc1ccccc1)C(=O)N[C@H](C(=O)O)C(C)C)C(C)C [HBV Env 335] | 5.3 (1.6) ΔLU | 4/6 | immunogenic |  | 
3 | AKFVAAWTLKAAA [PADRE] |  |  |  | highly immunogenic | high MHC binding affinity
4 | CC[C@H](C)[C@H](NC(=O)CNC(=O)[C@H](C)NC(=O)[C@H](CCCCN)NC(=O)[C@H](Cc1c[nH]c2ccccc12)NC(=O)[C@H](CC(C)C)NC(=O)[C@@H](NC(=O)[C@@H](N)Cc1c[nH]cn1)[C@@H](C)O)C(=O)N[C@@H](CC(C)C)C(=O)N[C@@H](Cc1ccc(O)cc1)C(=O)N[C@@H](CCCCN)C(=O)O [HBV Pol 149] | 13.1 (1.2) ΔLU | 6/6 |  |  | 
5 | CC(C)[C@H](NC(=O)[C@@H](N)[C@@H](C)O)C(=O)N[C@@H](Cc1ccc(O)cc1)C(=O)N[C@@H](Cc1ccc(O)cc1)C(=O)NCC(=O)N[C@H](C(=O)N1CCC[C@H]1C(=O)N[C@H](C(=O)N[C@@H](Cc1c[nH]c2ccccc12)C(=O)N[C@@H](CCCCN)C(=O)O)C(C)C)C(C)C [HIV Env 49] | 13.4 (3.1) ΔLU | 28/33 |  |  | 
6 | CSCC[C@H](NC(=O)[C@@H](N)Cc1ccc(O)cc1)C(=O)N[C@@H](CC(=O)O)C(=O)N[C@@H](CC(=O)O)C(=O)N[C@H](C(=O)N[C@H](C(=O)N[C@@H](CC(C)C)C(=O)NCC(=O)N[C@@H](C)C(=O)O)C(C)C)C(C)C [HBV Pol 55 1-A] |  | 0/6 | weakly or nonimmunogenic; also recorded: essentially nonimmunogenic |  | 
7 | CC[C@H](C)[C@H](N)C(=O)N[C@@H](CC(C)C)C(=O)N[C@@H](CCCCN)C(=O)N[C@@H](CCC(=O)O)C(=O)N1CCC[C@H]1C(=O)N[C@H](C(=O)N[C@@H](Cc1c[nH]cn1)C(=O)NCC(=O)N[C@H](C(=O)O)C(C)C)C(C)C [HIV Pol 476] | 15.2 (2.9) ΔLU | 2/5 |  |  | 
